Source: ChEMBL document CHEMBL5244273, “Tuberculosis: An Overview of the Immunogenic Response, Disease Progression, and Medicinal Chemistry Efforts in the Last Decade toward the Development of Potential Drugs for Extensively Drug-Resistant Tuberculosis Strains” (J Med Chem, 2021)
pEC50, pIC50: −log10 of the molar value. Converted amounts (≈) assume the structure as drawn.

system: Mycobacterium tuberculosis; experiment: Potentiation of ethionamide induced antibacterial activity against Mycobacterium tuberculosis H37Rv expressing GFP incubated for 5 days by fluorescence based analysis; format: functional, organism-based; details: 120 h

SMILES	pEC50
O=C(CCC(F)(F)F)N1CCC2(CC1)CC(OCC(F)(F)F)=NO2	> 7.42
CCCOC1=NOC2(CCN(C(=O)CCC(F)(F)F)CC2)C1	> 7.42
CC(C)COC1=NOC2(CCN(C(=O)CCC(F)(F)F)CC2)C1	> 7.42

system: Mycobacterium tuberculosis; experiment: Antimycobacterial activity against Mycobacterium tuberculosis H37Rv infected in human THP-1 cells assessed as inhibition of bacterial growth; format: functional, organism-based; details: not given

SMILES	pIC50
O=C(CCC(F)(F)F)N1CCC2(CC1)CC(OCC(F)(F)F)=NO2	7.30
CCCOC1=NOC2(CCN(C(=O)CCC(F)(F)F)CC2)C1	7.30
CC(C)COC1=NOC2(CCN(C(=O)CCC(F)(F)F)CC2)C1	7.30

system: Mycobacterium tuberculosis; experiment: Antimycobacterial activity against Mycobacterium tuberculosis H37Rv assessed as inhibition of bacterial growth by resazurin dye based fluorescence analysis; format: functional; details: not given

SMILES	MIC [µM]
O=S(=O)(NCCO)c1ccc(-c2nnn(Cc3ccc(F)cn3)n2)cc1	0.1 (≈ 0.0378 µg/mL)
COc1ccc(Cn2cc(-c3ccc(S(=O)(=O)NCCO)cc3)nn2)cc1	0.1 (≈ 0.0388 µg/mL)
NC(=O)CNS(=O)(=O)c1ccc(-c2cn(Cc3ccc(F)cc3)nn2)cc1	0.1 (≈ 0.0389 µg/mL)
Cc1cc(Cn2nnc(-c3ccc(S(=O)(=O)NCC(N)=O)cc3)n2)ccn1	0.1 (≈ 0.0387 µg/mL)
COc1cc(-c2nnn(Cc3ccc(C#N)cn3)n2)ccc1S(=O)(=O)NCCO	0.1 (≈ 0.0415 µg/mL)
NC(=O)CNS(=O)(=O)c1ccc(-c2cn(CC3CCC(F)(F)CC3)nn2)cc1	0.1 (≈ 0.0413 µg/mL)
O=S(=O)(NCCO)c1ccc(-c2nnn(Cc3ccc(F)cn3)n2)cc1F	0.1 (≈ 0.0396 µg/mL)
CC(c1ccc(F)cc1)n1nnc(-c2ccc(S(=O)(=O)NCCO)cc2)n1 (stereo not given)	0.1 (≈ 0.0391 µg/mL)
O=S(=O)(NCCO)c1ccc(-c2cn(Cc3ccc(F)cn3)nn2)cc1	0.1 (≈ 0.0377 µg/mL)
N#CCNS(=O)(=O)c1ccc(-c2nnn(Cc3ccncn3)n2)cc1	0.1 (≈ 0.0356 µg/mL)
O=S(=O)(NCCO)c1ccc(-c2nnn(CC3CCCCO3)n2)cc1F (stereo not given)	0.1 (≈ 0.0385 µg/mL)
O=S(=O)(NCCO)c1ccc(-c2nnn(CC3CCCCO3)n2)c(F)c1F (stereo not given)	0.1 (≈ 0.0403 µg/mL)
NC(=O)CNS(=O)(=O)c1ccc(-c2nnn(Cc3ccc(Cl)cn3)n2)cc1	0.1 (≈ 0.0408 µg/mL)
NC(=O)CNS(=O)(=O)c1ccc(-c2nnn(CC3CCC(F)(F)CC3)n2)cc1	0.1 (≈ 0.0414 µg/mL)
C[C@@H](O)CNS(=O)(=O)c1ccc(-c2cn(Cc3ccc(F)cc3)nn2)cc1	0.1 (≈ 0.039 µg/mL)
COc1cnc(Cn2nnc(-c3ccc(S(=O)(=O)NCC#N)cc3)n2)cn1	0.1 (≈ 0.0386 µg/mL)
C[C@H](c1ccc(F)cn1)n1nnc(-c2ccc(S(=O)(=O)NCCO)cc2)n1	0.1 (≈ 0.0392 µg/mL)
O=S(=O)(NCCO)c1c(F)cc(-c2nnn(Cc3ccc(F)cn3)n2)cc1F	0.1 (≈ 0.0414 µg/mL)
O=S(=O)(NCCO)c1ccc(-c2nnn(CC3CCOCC3)n2)cc1F	0.1 (≈ 0.0385 µg/mL)
Cc1ccc(Cn2nnc(-c3ccc(S(=O)(=O)NCCO)cc3)n2)cn1	0.1 (≈ 0.0374 µg/mL)
O=S(=O)(NCCO)c1ccc(-c2nnn(CC3CCOCC3)n2)cc1	0.1 (≈ 0.0367 µg/mL)
COc1cc(-c2nnn(Cc3ccncc3)n2)ccc1S(=O)(=O)NCCO	0.1 (≈ 0.039 µg/mL)
N#CCNS(=O)(=O)c1ccc(-c2nnn(Cc3ccncc3)n2)cc1	0.1 (≈ 0.0355 µg/mL)

SMILES	MIC [µM]
COc1ccc(Cn2nnc(-c3ccc(S(=O)(=O)NC[C@@H](C)O)cc3)n2)cc1	0.1 (≈ 0.0403 µg/mL)
CC(c1ccc(F)cc1)n1cc(-c2ccc(S(=O)(=O)NCCO)cc2)nn1 (stereo not given)	0.1 (≈ 0.039 µg/mL)
COc1cc(-c2nnn(Cc3ccncc3)n2)ccc1S(=O)(=O)NCC(N)=O	0.1 (≈ 0.0403 µg/mL)
COc1ccc(Cn2nnc(-c3ccc(S(=O)(=O)NC[C@@H](C)O)cc3)n2)nc1	0.1 (≈ 0.0404 µg/mL)
Cc1ccc(Cn2nnc(-c3ccc(S(=O)(=O)NCC(N)=O)cc3)n2)nc1	0.1 (≈ 0.0387 µg/mL)
O=S(=O)(NCCO)c1ccc(-c2cn(Cc3ccc(F)cc3)nn2)cc1	0.1 (≈ 0.0376 µg/mL)
O=S(=O)(NCCO)c1ccc(-c2nnn(Cc3cccnc3)n2)cc1	0.1 (≈ 0.036 µg/mL)
COc1ccc(Cn2nnc(-c3ccc(S(=O)(=O)NCC#N)cc3)n2)cn1	0.1 (≈ 0.0385 µg/mL)
O=S(=O)(NCCO)c1ccc(-c2nnn(Cc3ccc(F)cn3)n2)cc1Cl	0.1 (≈ 0.0413 µg/mL)
Cc1cc(S(=O)(=O)NCCO)c(F)cc1-c1nnn(Cc2ccc(F)cn2)n1	0.1 (≈ 0.041 µg/mL)
O=S(=O)(NCCO)c1ccc(-c2nnn(Cc3ccc(F)cc3)n2)cc1F	0.1 (≈ 0.0395 µg/mL)
NC(=O)CNS(=O)(=O)c1ccc(-c2nnn(Cc3ccncc3)n2)cc1	0.1 (≈ 0.0373 µg/mL)
O=S(=O)(NCCO)c1ccc(-c2nnn(CC3CCCCC3)n2)cc1	0.1 (≈ 0.0365 µg/mL)
O=S(=O)(NCCO)c1ccc(-c2nnn(Cc3ccc(OC(F)(F)F)cc3)n2)cc1	0.1 (≈ 0.0443 µg/mL)
N#CCNS(=O)(=O)c1ccc(-c2cn(Cc3ccc(F)cn3)nn2)cc1	0.1 (≈ 0.0372 µg/mL)
NC(=O)CNS(=O)(=O)c1ccc(-c2nnn(Cc3ccc(F)cn3)n2)cc1	0.1 (≈ 0.0391 µg/mL)
COC(=O)CNS(=O)(=O)c1ccc(-c2nnn(Cc3ccncc3)n2)cc1	0.1 (≈ 0.0388 µg/mL)
Cc1cc(S(=O)(=O)NCCO)ccc1-c1nnn(CC2CCCCO2)n1 (stereo not given)	0.1 (≈ 0.0381 µg/mL)
COc1cc(-c2nnn(Cc3ccc(F)cc3)n2)ccc1S(=O)(=O)NCCO	0.1 (≈ 0.0407 µg/mL)
O=S(=O)(NCCO)c1ccc(-c2nnn(Cc3ccncc3)n2)cc1	0.1 (≈ 0.036 µg/mL)
O=S(=O)(NCCO)c1c(F)cc(-c2nnn(CC3CCCCO3)n2)cc1F (stereo not given)	0.1 (≈ 0.0403 µg/mL)
COc1cc(-c2nnn(Cc3ccc(C#N)cc3)n2)ccc1S(=O)(=O)NCC(N)=O	0.1 (≈ 0.0427 µg/mL)
CNS(=O)(=O)c1ccc(-c2nnn(Cc3ccncc3)n2)cc1OC	0.1 (≈ 0.036 µg/mL)

SMILES	MIC [µM]
O=S(=O)(NCCO)c1ccc(-c2nnn(Cc3ccc(F)cn3)n2)c(F)c1F	0.1 (≈ 0.0414 µg/mL)
O=S(=O)(NCCO)c1ccc(-c2nnn(Cc3ccnnc3)n2)cc1	0.1 (≈ 0.0361 µg/mL)
COC(=O)CNS(=O)(=O)c1ccc(-c2nnn(Cc3ccc(F)cc3)n2)cc1	0.1 (≈ 0.0405 µg/mL)
O=S(=O)(NCCO)c1ccc(-c2nnn(Cc3cccnn3)n2)cc1	0.1 (≈ 0.0361 µg/mL)
Cc1ccc(Cn2nnc(-c3ccc(S(=O)(=O)NC[C@@H](C)O)cc3)n2)nc1	0.1 (≈ 0.0388 µg/mL)
N#CCNS(=O)(=O)c1ccc(-c2nnn(CC3CCCCO3)n2)cc1 (stereo not given)	0.1 (≈ 0.0362 µg/mL)
NC(=O)CNS(=O)(=O)c1ccc(-c2nnn(Cc3ccc(F)cc3)n2)cc1Cl	0.1 (≈ 0.0425 µg/mL)
NC(=O)CNS(=O)(=O)c1ccc(-c2nnn(Cc3ccc(F)cc3)n2)cc1	0.1 (≈ 0.039 µg/mL)
CCOc1ccc(Cn2nnc(-c3ccc(S(=O)(=O)NCCO)cc3)n2)cc1	0.1 (≈ 0.0403 µg/mL)
O=S(=O)(NCCO)c1ccc(-c2nnn(Cc3ccc(C(F)(F)F)cc3)n2)cc1	0.1 (≈ 0.0427 µg/mL)
N#CCNS(=O)(=O)c1ccc(-c2nnn(Cc3cnccn3)n2)cc1	0.1 (≈ 0.0356 µg/mL)
N#CCNS(=O)(=O)c1ccc(-c2cn(Cc3ccncc3)nn2)cc1	0.1 (≈ 0.0354 µg/mL)
CC(c1ccc(F)cc1)n1nnc(-c2ccc(S(=O)(=O)NCC(N)=O)cc2)n1 (stereo not given)	0.1 (≈ 0.0404 µg/mL)
O=S(=O)(NCCO)c1ccc(-c2cn(Cc3ccncc3)nn2)cc1	0.1 (≈ 0.0359 µg/mL)
COc1cc(-c2nnn(Cc3ccc(F)cc3)n2)ccc1S(=O)(=O)NCC(N)=O	0.1 (≈ 0.042 µg/mL)
O=S(=O)(NCCO)c1ccc(-c2nnn(Cc3ccc(F)cn3)n2)c(F)c1	0.1 (≈ 0.0396 µg/mL)
COc1cc(-c2nnn(CC3CCC(F)(F)CC3)n2)ccc1S(=O)(=O)NCC(N)=O	0.1 (≈ 0.0444 µg/mL)
NC(=O)CNS(=O)(=O)c1ccc(-c2nnn(Cc3ccc(F)c(F)c3)n2)cc1	0.1 (≈ 0.0408 µg/mL)
Cc1cc(S(=O)(=O)NCCO)ccc1-c1nnn(Cc2ccc(F)cn2)n1	0.1 (≈ 0.0392 µg/mL)
Cc1ccc(Cn2nnc(-c3ccc(S(=O)(=O)NCCO)cc3)n2)nc1	0.1 (≈ 0.0374 µg/mL)
O=S(=O)(NCCO)c1ccc(-c2nnn(CC3CCCOC3)n2)cc1 (stereo not given)	0.1 (≈ 0.0367 µg/mL)
COc1ccc(Cn2nnc(-c3ccc(S(=O)(=O)NCC(N)=O)cc3)n2)cc1	0.1 (≈ 0.0402 µg/mL)
Cc1cc(Cn2nnc(-c3ccc(S(=O)(=O)NCCO)cc3)n2)ccn1	0.1 (≈ 0.0374 µg/mL)

SMILES	MIC [µM]
Cc1cc(-c2nnn(CC3CCCCO3)n2)ccc1S(=O)(=O)NCCO (stereo not given)	0.1 (≈ 0.0381 µg/mL)
Cc1ccc(Cn2nnc(-c3ccc(S(=O)(=O)NCC(N)=O)cc3)n2)cc1	0.1 (≈ 0.0386 µg/mL)
COc1ccc(Cn2nnc(-c3ccc(S(=O)(=O)NCCO)cc3)n2)nc1	0.1 (≈ 0.039 µg/mL)
Cc1ccc(Cn2cc(-c3ccc(S(=O)(=O)NCCO)cc3)nn2)nc1	0.1 (≈ 0.0373 µg/mL)
COc1ccc(Cn2nnc(-c3ccc(S(=O)(=O)NCCO)c(OC)c3)n2)nc1	0.1 (≈ 0.042 µg/mL)
N#CNS(=O)(=O)c1ccc(-c2nnn(Cc3ccc(F)cn3)n2)cc1	0.1 (≈ 0.0359 µg/mL)
O=S(=O)(NCCO)c1ccc(-c2nnn(CC3CCCCO3)n2)c(F)c1 (stereo not given)	0.1 (≈ 0.0385 µg/mL)
CNS(=O)(=O)c1ccc(-c2nnn(Cc3ccc(C#N)cc3)n2)cc1	0.1 (≈ 0.0354 µg/mL)
COc1cc(-c2nnn(Cc3ccncc3)n2)ccc1S(=O)(=O)NCC#N	0.1 (≈ 0.0385 µg/mL)
N#CCNS(=O)(=O)c1ccc(-c2nnn(Cc3ccc(F)cc3)n2)cc1	0.1 (≈ 0.0372 µg/mL)
COc1cc(-c2nnn(C(C)c3ccc(F)cc3)n2)ccc1S(=O)(=O)NCC(N)=O (stereo not given)	0.1 (≈ 0.0434 µg/mL)
N#Cc1ccc(Cn2cc(-c3ccc(S(=O)(=O)NCCO)cc3)nn2)cc1	0.1 (≈ 0.0383 µg/mL)
N#CCNS(=O)(=O)c1ccc(-c2nnn(CC3CCOCC3)n2)cc1	0.1 (≈ 0.0362 µg/mL)
O=S(=O)(NCCO)c1ccc(-c2nnn(Cc3ccc(F)cn3)n2)c(Cl)c1	0.1 (≈ 0.0413 µg/mL)
Cc1cnc(Cn2nnc(-c3ccc(S(=O)(=O)NCC#N)cc3)n2)cn1	0.1 (≈ 0.037 µg/mL)
NC(=O)CNS(=O)(=O)c1ccc(-c2nnn(CC3CCCCO3)n2)cc1 (stereo not given)	0.1 (≈ 0.038 µg/mL)
COc1ccc(Cn2nnc(-c3ccc(S(=O)(=O)NCCO)cc3)n2)cc1F	0.1 (≈ 0.0407 µg/mL)
COc1cc(-c2nnn(Cc3ccc(F)cn3)n2)ccc1S(=O)(=O)NCCO	0.1 (≈ 0.0408 µg/mL)
O=S(=O)(NCCO)c1ccc(-c2nnn(CC3CCCCC3)n2)cc1F	0.1 (≈ 0.0383 µg/mL)
Cc1cc(-c2nnn(Cc3ccc(F)cn3)n2)ccc1S(=O)(=O)NCCO	0.1 (≈ 0.0392 µg/mL)
